Test results: patent publication US9540380B2, “Imidazotriazinone compounds” (Ironwood Pharmaceuticals, Inc., priority 2010, dated 2017)

biological target: T1, PDE9A2 (Homo sapiens, UniProt O76083); assay: Phosphodiesterase Enzyme Screening Assay, PDE9A2 (Caliper LabChip mobility-shift); assay type: biochemical; details: 10 concentrations, 4.0 μM cGMP substrate, 1 hour at R.T.; read-out: Band (PDE9A2 IC50)
T1 construct: purchased Reaction Biology Corporation, Malvern, Pa
Text: (§1) Compounds of the invention were screened against PDE1A, PDE1B, PDE2A, PDE3A, PDE3B, PDE4A1A, PDE4B1, PDE4D3, PDE5A1, PDE6C, PDE7A, PDE8A1, PDE9A2, PDE10A2 AND PDE11A isoforms of the phosphodiesterase enzyme to determine activity and overall selectivity through comparative analysis. The assay generally consists of testing the compounds of the invention at 10 concentrations. Where 8-methoxy-IBMX and Zaprinast were used as reference inhibitors.
(§2) The phosphodiesterase enzyme isoforms were obtained from a commercial retailer (Reaction Biology Corporation, Malvern, Pa.) for use in the instant screening assay.
(§3) The analysis was completed using the Caliper LabChip 3000 and a 12-sipper LabChip. LabChip assays are separations-based, meaning that the product and substrate are electrophoretically separated, thereby minimizing interferences and yielding the highest data quality available on any screening platform. Z′ factors for both the EZ Reader and LC3000 enzymatic assays are routinely in the 0.8 to 0.9 range. High Z′ values, few false positives, few false negatives and analytical quality reproducibility are the reasons cited for the increasing reliance on the LabChip assays.
(§4) The off-chip incubation mobility-shift phosphodiesterase assay uses a microfluidic chip to measure the conversion of a fluorescent cyclic AMP substrate to a 5′-AMP product, or a cyclic GMP substrate to a 5′-GMP product. The reaction mixture, from a microtiter plate well, is introduced through a capillary sipper onto the chip, where the fluorescent substrate and product are separated by electrophoresis and detected via laser-induced fluorescence. […] The precision of microfluidics allows researchers to detect subtle interactions between drug candidates and therapeutic targets. The technology is able to detect both strong and weak inhibitors with high accuracy, and routinely identifies drug candidates that conventional techniques miss.
(§5) Reactions were carried out in 100 mM HEPES (pH 7.5), 5 mM MgCl2, 1 mM DTT, 0.003% Brij, 4.0 μM cGMP substrate. The reaction was started by addition of cGMP or cAMP and incubated for 1 hour at R.T. The reaction was terminated by the addition of stop buffer containing 100 mM HEPES (pH 7.5), 15 mM EDTA, 0.015% Brij-35, 5% DMSO. Cyclic AMP/GMP substrate and 5′-AMP/5′-GMP product were separated by charge using electrophoretic mobility shift. Product formed was compared to control wells to determine inhibition or enhancement of enzyme activity.
(§6) One or more reference compounds, depending on phosphodiesterase isoform, selected from 8-methoxy-IBMX, Zaprinast, Trequinsin, Pentoxifyline, Rolipram, and Vinpocetine, Dipyridamole, and BRL-50481 were run alongside client samples to ensure data quality. The resulting IC50 is compared against the historical average and must be within 3-fold of this average.
(§7) Data points were averages of quadruplicate wells and error bars represented the SEM for each point. IC50s were determined using GraphPad Prism Version 5.01 and the log (inhibitor) vs. response variable slope curve fit.

T1 sequence (O76083 1-533 isoform O76083-2): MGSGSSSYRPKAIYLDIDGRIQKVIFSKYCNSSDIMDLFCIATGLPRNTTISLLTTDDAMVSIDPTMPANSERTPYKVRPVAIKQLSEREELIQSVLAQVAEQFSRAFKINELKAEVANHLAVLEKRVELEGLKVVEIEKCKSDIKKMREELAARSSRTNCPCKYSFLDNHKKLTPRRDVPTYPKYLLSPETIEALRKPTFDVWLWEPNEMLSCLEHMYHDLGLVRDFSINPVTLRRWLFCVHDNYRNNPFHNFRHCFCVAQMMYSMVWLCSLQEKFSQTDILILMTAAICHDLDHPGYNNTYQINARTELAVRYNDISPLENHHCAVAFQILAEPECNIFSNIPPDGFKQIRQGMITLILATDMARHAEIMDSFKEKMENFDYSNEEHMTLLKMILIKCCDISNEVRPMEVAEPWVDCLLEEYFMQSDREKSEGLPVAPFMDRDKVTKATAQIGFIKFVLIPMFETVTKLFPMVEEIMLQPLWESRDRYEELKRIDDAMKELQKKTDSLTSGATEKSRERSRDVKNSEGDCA

IC50 [µM] | SMILES
< 1 | C[C@@H]1CN(Cc2ccccc2)C[C@H]1c1nn2c(C3CCC(F)(F)CC3)ncc2c(=O)[nH]1 (single isomer, unassigned) [(−)-2-((3,4-trans)-1-benzyl-4-methylpyrrolidin-3-yl)-7-(4,4-difluorocyclohexyl)imidazo[5,1-f][1,2,4]triazin-4(3H)-one]
> 10 | C[C@@H]1CN(Cc2ncccn2)C[C@H]1c1nn2c(C3CCOCC3)ncc2c(=O)[nH]1 (single isomer, unassigned) [(−)-2-((3,4-trans)-4-methyl-1-(pyrimidin-2-ylmethyl)pyrrolidin-3-yl)-7-(tetrahydro-2H-pyran-4-yl)imidazo[5,1-f][1,2,4]triazin-4(3H)-one]
> 10 | C[C@@H]1CN(Cc2ccccc2)C[C@H]1c1nn2c(C(C)(C)O)ncc2c(=O)[nH]1 (single isomer, unassigned) [(−)-2-((3,4-trans)-1-benzyl-4-methylpyrrolidin-3-yl)-7-(2-hydroxypropan-2-yl)imidazo[5,1-f][1,2,4]triazin-4(3H)-one]
1 to 10 | C[C@@H]1CN(Cc2cnccn2)C[C@H]1c1nn2c(C3CCOCC3)ncc2c(=O)[nH]1 (single isomer, unassigned) [(−)-2-((3,4-trans)-4-methyl-1-(pyrazin-2-ylmethyl)pyrrolidin-3-yl)-7-(tetrahydro-2H-pyran-4-yl)imidazo[5,1-f][1,2,4]triazin-4(3H)-one]
< 1 | C[C@@H]1CN(Cc2ncc3ccccc3n2)C[C@H]1c1nn2c(C3CCOCC3)ncc2c(=O)[nH]1 (single isomer, unassigned) [(−)-2-((3,4-trans)-4-methyl-1-(quinazolin-2-ylmethyl)pyrroli] [(−)-2-((3,4-trans)-4-methyl-1-(quinazolin-2-ylmethyl)pyrrolidin-3-yl)-7-(tetrahydro-2H-pyran-4-yl)imidazo[5,1-f][1,2,4]triazin-4(3H)-one]
< 1 | C[C@@H]1CN(Cc2cccc(F)c2)C[C@H]1c1nn2c(C3CCOCC3)ncc2c(=O)[nH]1 (single isomer, unassigned) [(−)-2-((3,4-trans)-1-(3-fluorobenzyl)-4-methylpyrrolidin-3-yl)-7-(tetrahydro-2H-pyran-4-yl)imidazo[5,1-f][1,2,4]triazin-4(3H)-one]
> 10 | CCS(=O)(=O)N1CCC(c2ncc3c(=O)[nH]c([C@@H]4CN(Cc5ncccn5)C[C@H]4C)nn23)CC1 (single isomer, unassigned) [(−)-7-(1-(ethylsulfonyl)piperidin-4-yl)-2-((3,4-trans)-4-methyl-1-(pyrimidin-2-ylmethyl)pyrrolidin-3-yl)imidazo[5,1-f][1,2,4]triazin-4(3H)-one]
1 to 10 | Cc1ccc(Cl)cc1-c1ncc2c(=O)[nH]c([C@@H]3CN(Cc4ccccc4)C[C@H]3C)nn12 (single isomer, unassigned) [(−)-2-((3,4-trans)-1-benzyl-4-methylpyrrolidin-3-yl)-7-(5-chloro-2-methylphenyl)imidazo[5,1-f][1,2,4]triazin-4(3H)-one]
> 10 | CCS(=O)(=O)N1CCC(c2ncc3c(=O)[nH]c([C@@H]4CN(Cc5ccccc5)C[C@H]4C)nn23)CC1 (single isomer, unassigned) [(−)-2-((3,4-trans)-1-benzyl-4-methylpyrrolidin-3-yl)-7-(1-(ethylsulfonyl)piperidin-4-yl)imidazo[5,1-f][1,2,4]triazin-4(3H)-one]

Further lines, the compound ahead of its results:

SMILES | IC50 [µM]
CCS(=O)(=O)N1CCC(c2ncc3c(=O)[nH]c([C@@H]4CN(Cc5ccccc5)C[C@H]4C)nn23)CC1 (single isomer, unassigned) [(+)-2-((3,4-trans)-1-benzyl-4-methylpyrrolidin-3-yl)-7-(1-(ethylsulfonyl)piperidin-4-yl)imidazo[5,1-f][1,2,4]triazin-4(3H)-one] | < 1
C[C@@H]1CN(Cc2ccccc2F)C[C@H]1c1nn2c(C3CCOCC3)ncc2c(=O)[nH]1 (single isomer, unassigned) [(+)-2-((3,4-trans)-1-(2-fluorobenzyl)-4-methylpyrrolidin-3-yl)-7-(tetrahydro-2H-pyran-4-yl)imidazo[5,1-f][1,2,4]triazin-4(3H)-one] | < 1
CC1CN(Cc2ncccn2)CC1c1nn2c(C34CC5CC(CC(C5)C3)C4)ncc2c(=O)[nH]1 (single isomer, unassigned; (+)) | < 1
CC1CN([C@H](C)c2ccccc2)CC1c1nn2c(C3CCOCC3)ncc2c(=O)[nH]1 (single isomer, unassigned; (-)) | < 1
C[C@@H]1CN(Cc2ccccc2)C[C@H]1c1nn2c(C(C)(C)O)ncc2c(=O)[nH]1 (single isomer, unassigned) [(+)-2-((3,4-trans)-1-benzyl-4-methylpyrrolidin-3-yl)-7-(2-hydroxypropan-2-yl)imidazo[5,1-f][1,2,4]triazin-4(3H)-one] | 1 to 10
C[C@@H]1CN(Cc2ccc3nccn3n2)C[C@H]1c1nn2c(C3CCOCC3)ncc2c(=O)[nH]1 (single isomer, unassigned) [(+)-2-((3,4-trans)-1-(imidazo[1,2-b]pyridazin-6-ylmethyl)-4-methylpyrrolidin-3-yl)-7-(tetrahydro-2H-pyran-4-yl)imidazo[5,1-f][1,2,4]triazin-4(3H)-one] | < 1
C[C@@H]1CN(Cc2ncccn2)C[C@H]1c1nn2c(C3CCC(F)(F)CC3)ncc2c(=O)[nH]1 (single isomer, unassigned) [(+)-7-(4,4-difluorocyclohexyl)-2-((3,4-trans)-4-methyl-1-(pyrimidin-2-ylmethyl)pyrrolidin-3-yl)imidazo[5,1-f][1,2,4]triazin-4(3H)-one] | < 1
CC1CN(Cc2ccccc2)CC1c1nn2c(C34CC5CC(CC(C5)C3)C4)ncc2c(=O)[nH]1 (single isomer, unassigned; (-)) | > 10
C[C@@H]1CN(Cc2ccccc2)C[C@H]1c1nn2c(C3CCC(F)(F)CC3)ncc2c(=O)[nH]1 (single isomer, unassigned) [(+)-2-((3,4-trans)-1-benzyl-4-methylpyrrolidin-3-yl)-7-(4,4-difluorocyclohexyl)imidazo[5,1-f][1,2,4]triazin-4(3H)-one] | < 1
C[C@@H]1CN(Cc2cnccn2)C[C@H]1c1nn2c(C3CCOCC3)ncc2c(=O)[nH]1 (single isomer, unassigned) [(+)-2-((3,4-trans)-4-methyl-1-(pyrazin-2-ylmethyl)pyrrolidin-3-yl)-7-(tetrahydro-2H-pyran-4-yl)imidazo[5,1-f][1,2,4]triazin-4(3H)-one] | < 1
Cc1ccc(Cl)cc1-c1ncc2c(=O)[nH]c([C@@H]3CN(Cc4ccccc4)C[C@H]3C)nn12 (single isomer, unassigned) [(+)-2-((3,4-trans)-1-benzyl-4-methylpyrrolidin-3-yl)-7-(5-chloro-2-methylphenyl)imidazo[5,1-f][1,2,4]triazin-4(3H)-one] | < 1
C[C@@H]1CN(Cc2ncc3ccccc3n2)C[C@H]1c1nn2c(C3CCOCC3)ncc2c(=O)[nH]1 (single isomer, unassigned) [(+)-2-((3,4-trans)-4-methyl-1-(quinazolin-2-ylmethyl)pyrrolidin-3-yl)-7-(tetrahydro-2H-pyran-4-yl)imidazo[5,1-f][1,2,4]triazin-4(3H)-one] | < 1

biological target: T2, PDE1B (Homo sapiens, UniProt Q01064); assay: Phosphodiesterase Enzyme Screening Assay, PDE1B (selectivity versus PDE9A2); assay type: biochemical; details: ratio of IC50 values; value greater than 1 indicates greater selectivity for PDE9A2
T2 construct: purchased Reaction Biology Corporation, Malvern, Pa
T2 sequence (Q01064 whole entry): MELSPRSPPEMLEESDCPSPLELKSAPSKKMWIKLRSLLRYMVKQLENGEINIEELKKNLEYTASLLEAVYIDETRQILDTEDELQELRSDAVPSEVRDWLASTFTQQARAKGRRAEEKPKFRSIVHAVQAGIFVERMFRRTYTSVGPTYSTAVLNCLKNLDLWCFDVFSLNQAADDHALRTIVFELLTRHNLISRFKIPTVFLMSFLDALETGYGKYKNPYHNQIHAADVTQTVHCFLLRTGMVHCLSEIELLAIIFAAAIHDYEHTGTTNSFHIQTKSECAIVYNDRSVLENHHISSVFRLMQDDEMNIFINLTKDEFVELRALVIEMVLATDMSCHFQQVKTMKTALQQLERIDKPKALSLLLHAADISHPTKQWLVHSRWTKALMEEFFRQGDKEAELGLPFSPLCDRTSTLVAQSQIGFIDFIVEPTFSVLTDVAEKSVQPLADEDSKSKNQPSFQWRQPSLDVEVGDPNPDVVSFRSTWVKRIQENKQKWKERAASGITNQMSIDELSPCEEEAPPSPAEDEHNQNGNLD
Text: as §1, §2, §3, §4, §5, §6, §7

SMILES | PDE1B selectivity (versus PDE9A2)
C[C@@H]1CN(Cc2ccc3ccccc3n2)C[C@H]1c1nn2c(C3CCOCC3)ncc2c(=O)[nH]1 (single isomer, unassigned) [(+)-2-((3,4-trans)-4-methyl-1-(quinolin-2-ylmethyl)pyrrolidi] [(+)-2-((3,4-trans)-4-methyl-1-(quinolin-2-ylmethyl)pyrrolidin-3-yl)-7-(tetrahydro-2H-pyran-4-yl)imidazo[5,1-f][1,2,4]triazin-4(3H)-one] | 1400
CC1CN(Cc2ccccc2)CC1c1nn2c(C3CCCOC3)ncc2c(=O)[nH]1 (single isomer, unassigned) [2-((3,4-trans)-1-benzyl-4-methylpyrrolidin-3-yl)-7-(tetrahyd] [2-((3,4-trans)-1-benzyl-4-methylpyrrolidin-3-yl)-7-(tetrahydro-2H-pyran-3-yl)imidazo[5,1-f][1,2,4]triazin-4(3H)-one] | 38

biological target: T3, PDE1A (Homo sapiens, UniProt P54750); assay: Phosphodiesterase Enzyme Screening Assay, PDE1A (selectivity versus PDE9A2); assay type: biochemical; details: ratio of IC50 values; value greater than 1 indicates greater selectivity for PDE9A2
T3 construct: purchased Reaction Biology Corporation, Malvern, Pa
T3 sequence (P54750 whole entry): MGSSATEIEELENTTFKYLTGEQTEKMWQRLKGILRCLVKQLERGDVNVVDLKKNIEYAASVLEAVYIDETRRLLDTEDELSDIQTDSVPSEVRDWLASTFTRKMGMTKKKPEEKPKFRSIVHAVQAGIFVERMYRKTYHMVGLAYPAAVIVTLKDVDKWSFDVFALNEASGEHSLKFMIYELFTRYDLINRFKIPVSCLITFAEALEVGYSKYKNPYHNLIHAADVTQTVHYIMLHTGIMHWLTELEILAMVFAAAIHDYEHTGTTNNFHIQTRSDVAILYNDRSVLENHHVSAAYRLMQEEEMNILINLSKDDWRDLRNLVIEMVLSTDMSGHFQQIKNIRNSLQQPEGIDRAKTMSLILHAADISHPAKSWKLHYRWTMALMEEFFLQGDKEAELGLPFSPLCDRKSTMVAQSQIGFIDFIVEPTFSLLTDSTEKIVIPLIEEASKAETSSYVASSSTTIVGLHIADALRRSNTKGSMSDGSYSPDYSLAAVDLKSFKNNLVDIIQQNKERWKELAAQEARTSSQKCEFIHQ
Text: as §1, §2, §3, §4, §5, §6, §7

SMILES | PDE1A selectivity (versus PDE9A2)
C[C@@H]1CN(Cc2ccc3ccccc3n2)C[C@H]1c1nn2c(C3CCOCC3)ncc2c(=O)[nH]1 (single isomer, unassigned) [(+)-2-((3,4-trans)-4-methyl-1-(quinolin-2-ylmethyl)pyrrolidi] [(+)-2-((3,4-trans)-4-methyl-1-(quinolin-2-ylmethyl)pyrrolidin-3-yl)-7-(tetrahydro-2H-pyran-4-yl)imidazo[5,1-f][1,2,4]triazin-4(3H)-one] | 621
CC1CN(Cc2ccccc2)CC1c1nn2c(C3CCCOC3)ncc2c(=O)[nH]1 (single isomer, unassigned) [2-((3,4-trans)-1-benzyl-4-methylpyrrolidin-3-yl)-7-(tetrahyd] [2-((3,4-trans)-1-benzyl-4-methylpyrrolidin-3-yl)-7-(tetrahydro-2H-pyran-3-yl)imidazo[5,1-f][1,2,4]triazin-4(3H)-one] | 28
